Laboratory results: ChEMBL document CHEMBL3822385, “Antileishmanial activity of new thiophene-indole hybrids: Design, synthesis, biological and cytotoxic evaluation, and chemometric studies” (Bioorg Med Chem, 2016)
≈ marks a conversion by molar mass, not a printed value. Calls of active or inactive are those of the source. The rule behind the calls is not given here.

Experiments:
[1] = Selectivity index, ratio of HC50 for human O+ erythrocytes to IC50 for Leishmania amazonensis IFLA/BR/67/PH8 promastigotes
[2] = Hemolytic activity in human O+ erythrocytes after 1 hr by spectrophotometry; type: ADME, cell-based, Erythrocyte; settings: for HC50 at 1 h: human O+ erythrocytes
Leishmania amazonensis [3] = test: Antileishmanial activity against Leishmania amazonensis IFLA/BR/67/PH8 promastigotes assessed as parasite growth inhibition incubated for 72 hrs using neubauer chamber by microscopic analysis; type: functional, organism-based; settings: IFLA/BR/67/PH8, 72 h
Leishmania amazonensis [4] = test: Antileishmanial activity against trivalent antimony-resistant Leishmania amazonensis IFLA/BR/67/PH8 promastigotes assessed as parasite growth inhibition incubated for 72 hrs using neubauer chamber by microscopic analysis; type: functional, organism-based; settings: IFLA/BR/67/PH8, 72 h
Leishmania amazonensis [5] = test: Induction of genomic DNA fragmentation in Leishmania amazonensis IFLA/BR/67/PH8 promastigotes at 1 to 4 times antileishmanial IC50 after overnight incubation by GelRed staining based agarose gel electrophoresis; type: functional, organism-based

Compound	Selectivity Index [1]	HC50 at 1 h [2]	IC50 (Leishmania amazonensis [3])	IC50 (Leishmania amazonensis [4])	Activity (Leishmania amazonensis [5])	HC50 ([2]; erythrocyte, 1 h)
N#Cc1c(/N=C/c2c[nH]c3cccc([N+](=O)[O-])c23)sc2c1CCCCC2	>0.3	> 400 µg/mL	1070 µg/mL (≈ 2930 µM)			
N#Cc1c(/N=C/c2c[nH]c3ccccc23)sc2c1CCCCCC2	>73.2	> 400 µg/mL	5.4 µg/mL (≈ 16.2 µM)			
N#Cc1ccc2[nH]cc(/C=N/c3sc4c(c3C#N)CCCCC4)c2c1	>115.6	> 400 µg/mL	3.4 µg/mL (≈ 9.87 µM)			
N#Cc1c(/N=C/c2c[nH]c3c2ccc2ccccc23)sc2c1CCCCC2	>21.4	> 400 µg/mL	18.7 µg/mL (≈ 50.6 µM)			
COc1ccc2[nH]cc(/C=N/c3sc4c(c3C#N)CCCC4)c2c1	>66.8	> 400 µg/mL	6 µg/mL (≈ 17.9 µM)			
COc1ccc2[nH]cc(/C=N/c3sc4c(c3C#N)CCC4)c2c1	>3.2	> 400 µg/mL	125 µg/mL (≈ 388 µM)			
N#Cc1c(/N=C/c2c[nH]c3ccccc23)sc2c1CCCCC2	>124.6	> 400 µg/mL	3.2 µg/mL (≈ 10 µM)			
Cc1ccc2[nH]cc(/C=N/c3sc4c(c3C#N)CCCC4)c2c1	>172.4	> 400 µg/mL	2.3 µg/mL (≈ 7.2 µM)			
N#Cc1c(/N=C/c2c[nH]c3ncccc23)sc2c1CCCCCC2	>0.6	> 400 µg/mL	651 µg/mL (≈ 1950 µM)			
N#Cc1c(/N=C/c2c[nH]c3cccc([N+](=O)[O-])c23)sc2c1CCC2			171 µg/mL (≈ 509 µM)			
Cc1ccc2[nH]cc(/C=N/c3sc4c(c3C#N)CCC4)c2c1	>56.6	> 400 µg/mL	7.1 µg/mL (≈ 23.2 µM)			
N#Cc1ccc2[nH]cc(/C=N/c3sc4c(c3C#N)CCCC4)c2c1	>84.7	> 400 µg/mL	4.7 µg/mL (≈ 14.2 µM)			
N#Cc1c(/N=C/c2c[nH]c3c2ccc2ccccc23)sc2c1CCCC2	>13.5	> 400 µg/mL	29.7 µg/mL (≈ 83.6 µM)			
N#Cc1c(/N=C/c2c[nH]c3ccccc23)sc2c1CCC2	>8.2	> 400 µg/mL	48.9 µg/mL (≈ 168 µM)			
Cc1cccc2c(/C=N/c3sc4c(c3C#N)CCCC4)c[nH]c12	>1.2	> 400 µg/mL	322 µg/mL (≈ 1010 µM)			
COc1ccc2[nH]cc(/C=N/c3sc4c(c3C#N)CCCCCC4)c2c1	>62.7	> 400 µg/mL	6.4 µg/mL (≈ 17.6 µM)			
N#Cc1c(/N=C/c2c[nH]c3cccc([N+](=O)[O-])c23)sc2c1CCCC2	>1.3	> 400 µg/mL	299 µg/mL (≈ 853 µM)			
N#Cc1c(/N=C/c2c[nH]c3ncccc23)sc2c1CCCCC2	>45.8	> 400 µg/mL	8.7 µg/mL (≈ 27.2 µM)			

Compound	Selectivity Index [1]	HC50 at 1 h [2]	IC50 (Leishmania amazonensis [3])	IC50 (Leishmania amazonensis [4])	Activity (Leishmania amazonensis [5])	HC50 ([2]; erythrocyte, 1 h)
N#Cc1c(/N=C/c2c[nH]c3ccccc23)sc2c1CCCC2	>88.8	> 400 µg/mL	4.5 µg/mL (≈ 14.7 µM)			
Potassium antimonyl tartrate trihydrate	38.2					
MEGLUMINE ANTIMONATE [listing 1 of 2 here]	0.02					
N#Cc1c(/N=C/c2c[nH]c3ncccc23)sc2c1CCC2	>1.4	> 400 µg/mL	289 µg/mL (≈ 988 µM)			
Cc1cccc2c(/C=N/c3sc4c(c3C#N)CCCCCC4)c[nH]c12	>96.6	> 400 µg/mL	4.1 µg/mL (≈ 11.8 µM)			
N#Cc1ccc2[nH]cc(/C=N/c3sc4c(c3C#N)CCC4)c2c1	>53.7	> 400 µg/mL	7.4 µg/mL (≈ 23.4 µM)			
Cc1cccc2c(/C=N/c3sc4c(c3C#N)CCCCC4)c[nH]c12	>0.5	> 400 µg/mL	786 µg/mL (≈ 2360 µM)			
COc1ccc2[nH]cc(/C=N/c3sc4c(c3C#N)CCCCC4)c2c1	>39.1	> 400 µg/mL	10.2 µg/mL (≈ 29.2 µM)			
N#Cc1ccc2[nH]cc(/C=N/c3sc4c(c3C#N)CCCCCC4)c2c1	>193.2	> 400 µg/mL	2.1 µg/mL (≈ 5.86 µM)	2.8 µg/mL (≈ 7.81 µM)	Active	
N#Cc1c(/N=C/c2c[nH]c3ncccc23)sc2c1CCCC2	>1.7	> 400 µg/mL	228 µg/mL (≈ 744 µM)			
Cc1ccc2[nH]cc(/C=N/c3sc4c(c3C#N)CCCCCC4)c2c1	>61.3	> 400 µg/mL	6.5 µg/mL (≈ 18.7 µM)			
Cc1cccc2c(/C=N/c3sc4c(c3C#N)CCC4)c[nH]c12			91.6 µg/mL (≈ 300 µM)			
MEGLUMINE ANTIMONATE [listing 2 of 2 here]						681.2 µg/mL
N#Cc1c(/N=C/c2c[nH]c3c2ccc2ccccc23)sc2c1CCC2	>50.7	> 400 µg/mL	7.9 µg/mL (≈ 23.1 µM)			
N#Cc1c(/N=C/c2c[nH]c3c2ccc2ccccc23)sc2c1CCCCCC2	>42.6	> 400 µg/mL	9.4 µg/mL (≈ 24.5 µM)			
N#Cc1c(/N=C/c2c[nH]c3cccc([N+](=O)[O-])c23)sc2c1CCCCCC2	>42.5	> 400 µg/mL	9.4 µg/mL (≈ 24.8 µM)			
Cc1ccc2[nH]cc(/C=N/c3sc4c(c3C#N)CCCCC4)c2c1	>65.6	> 400 µg/mL	6.1 µg/mL (≈ 18.3 µM)			
C[C@@H]1[C@H](O)[C@@H](C)/C=C/C=C/C=C/C=C/C=C/C=C/C=C/[C@H](O[C@@H]2O[C@H](C)[C@@H](O)[C@H](N)[C@@H]2O)C[C@@H]2O[C@](O)(C[C@@H](O)C[C@@H](O)[C@H](O)CC[C@@H](O)C[C@@H](O)CC(=O)O[C@H]1C)C[C@H](O)[C@H]2C(=O)O [AMPHOTERICIN B]	124.5	22.4 µg/mL	0.2 µg/mL (≈ 0.216 µM)			
